Consider six compounds from USRE37793E1, “Method and composition for inhibiting bacteria” (Winthrop University Hospital, priority 1995, dated 2002).

The subject of assay [1] is gut flora. Nature of the assay: Effect on gut flora and fecal production. On the set-up: species or system rats. Conditions: rat, in vivo.
Assay [2] deals with Klebsiella pneumoniae. Format: cell-based.
Assay [3] deals with bacteria. It counts as cell-based.
Assay [4] has as its system E. coli and Salmonella. Conditions: lag time and 18 hour turbidity only marginally affected.
Assay [5] concerns vancomycin-resistant enterococci (VRE). Format: cell-based.
For assay [6], the system named is bacteria. The assay is described as follows: Effect of cations (iron, copper) in culture medium on antibacterial activity. Format: cell-based. The conditions noted are these: iron added to culture medium. As for the experimental part: Oxygen tension effects were determined by agar diffusion in aerobic, microaerophilic (Candle jar), and anaerobic (GasPak) conditions. […] Other amounts and ratios were tested. Culture condition effects, such as pH or temperature were evaluated in broth mediums.
Therefore, these antagonists could be used to neutralize BisBAL when necessary.

Assay [7] concerns Helicobacter pylori. Format: cell-based.
Assay [8] concerns V.cholerae, S.flexneri, and Y.enterocolitica.
In assay [9] the test system is methicillin-resistant S. aureus (MRSA). Nature of the assay: Agar diffusion, zones of inhibition. Format: cell-based, Staphylococcus aureus. The conditions noted are these: MRSA (27 isolates); discs Bi(No3)3 157 μg, BAL 186 μg, BisBAL 157/31 μg; 24 h, 37° C. Background: In agar diffusion tests the substance spreads into inoculated agar from a disc or well.

In the case of `O=C([O-])c1ccccc1[O-].[Bi+3].[OH-]` [BSS], in [1], the “Effect on gut flora” value is “does not have a significant growth-inhibiting effect”.
In the case of `[H]/N=C(\N/C(=N/[H])NCCCCCCNC(=N)NC(=N)Nc1ccc(Cl)cc1)Nc1ccc(Cl)cc1` [CHX, chlorhexidine], the “Effect on CPS expression” value in [2] (even at 0.75 of the MIC) is “no significant effect”.
As for `O=S(=O)(O)CC(S)CS` (stereo not drawn) [DMPS, 2,3-dimercaptopropane-1-sulfonic acid], the “Effect of thiol-containing chelator on antibacterial properties of bismuth” value in assay [3] is given as “do not increase its antibacterial properties”.
On the same count and under the same terms, to `O=C(O)[C@@H](S)[C@@H](S)C(=O)O` [DMSA, dimercapto-succinic acid] belongs “do not increase its antibacterial properties”.
The same measure, in the same setting: to `N[C@@H](CS)C(=O)O` [cysteine] belongs “do not increase its antibacterial properties”.
With bismuth nitrate [Bi(NO3)3], in [4], the “Bi^3+ concentration in whose presence bacteria grew well” value was 250 to 500 µM. Moreover, the “Zones of Inhibition” value in [5] amounted to 7.3 ± 1.4 mm; in assay [9], 7.3 ± 2.8 mm. Also, the “Reversal of antibacterial effects by iron” value in assay [6] is “can be reversed by addition of micromolar amounts of iron”. Also, in [7], the “Zone diameter of inhibition” value is listed as “little or no zones of inhibition”. In assay [8], the “Bi^3+ concentration bacteria could withstand” value is listed as “up to 50 μM”. In addition, the “Concentration at which capsule and slime expression is inhibited” value in [2] (subinhibitory levels) is given as “greater than 500 μM”.
